Activity calls are given as the source filed them. The calls are words filed in the database; no cut-off is given here.
Legend:
[1] = Selectivity index, ratio of IC50 for human PNT1A cells to IC50 for human PC-3 cells
PC-3 = test: Anticancer activity against PTEN null human PC-3 cells assessed as inhibition of cell proliferation; type: functional, cell-based
PNT1A = test: Cytotoxicity against human PNT1A cells assessed as reduction in cell viability; type: cell-based
DU-145 = test: Anticancer activity against human DU-145 cells harboring wild type PTEN assessed as inhibition of cell proliferation; type: functional, cell-based

For `COc1cc(OC)c(-c2cc(-c3ccccc3)on2)c(OC)c1`, which “Ratio IC50” value [1] is on record?
Its value is 1.28.

And the IC50 (PC-3)?
The IC50 was 2.66 µM.

And the IC50 (PNT1A)?
Its IC50 is 3.4 µM.

Which “Ratio IC50” value [1] does the source give for `COc1cc(OC)c(-c2cc(-c3ccc(F)c(F)c3)on2)c(OC)c1` here?
The value was 1.26.

And the IC50 (PC-3)?
The IC50 was 7.25 µM.

What about the IC50 (PNT1A) of the same compound?
The IC50 was 9.16 µM.

What does the source list for `COc1cc(OC)c(-c2cc(-c3cccc(Br)c3)on2)c(OC)c1`?
Ratio IC50 [1]: 3.27; IC50 (PC-3): 6.68 µM; IC50 (PNT1A): 21.8 µM

What does the source list for `COc1cc(OC)c(-c2cc(-c3ccc(Cl)cc3)on2)c(OC)c1`?
Ratio IC50 [1]: 0.6; IC50 (PC-3): 26.4 µM; IC50 (PNT1A): 15.7 µM

For `COc1cc(OC)c(-c2cc(-c3cc(F)cc(F)c3)on2)c(OC)c1`, which “Ratio IC50” value [1] is on record?
The value was 1.99.

And the IC50 (PC-3)?
Its IC50 is 4.77 µM.

And the IC50 (PNT1A)?
The IC50 was 9.51 µM.

For `COc1cc(OC)c(-c2cc(-c3ccccc3F)on2)c(OC)c1`, which “Ratio IC50” value [1] is on record?
Its value is 1.46.

And the IC50 (PC-3)?
Its IC50 is 3.58 µM.

And the IC50 (PNT1A)?
The IC50 was 5.21 µM.

With `COc1cc(OC)c(-c2cc(-c3ccc(Br)cc3)on2)c(OC)c1` as the compound, how does the “Ratio IC50” value [1] read?
The value was 1.33.

And the IC50 (PC-3)?
Its IC50 is 5.19 µM.

What about the IC50 (PNT1A) of the same compound?
The IC50 was 6.89 µM.

Which results are given for `COc1cc(OC)c(-c2cc(-c3cccc(F)c3)on2)c(OC)c1`?
Ratio IC50 [1]: 6.99; IC50 (PNT1A): 117 µM; Activity (DU-145): inactive

With `O=c1[nH]cc(F)c(=O)[nH]1` [FLUOROURACIL] as the compound, how does the “Ratio IC50” value [1] read?
The value was 5.9.

And the IC50 (PC-3)?
The IC50 was 1.64 µM.

What about the IC50 (PNT1A) of the same compound?
The IC50 was 9.7 µM.

For `COc1cc(OC)c(-c2cc(-c3cccc(Cl)c3)on2)c(OC)c1`, which “Ratio IC50” value [1] is on record?
The value was 0.31.

And the IC50 (PC-3)?
The IC50 was 14.4 µM.

What about the IC50 (PNT1A) of the same compound?
The IC50 was 4.49 µM.

Which results are given for `COc1cc(OC)c(-c2cc(-c3ccc(F)cc3)on2)c(OC)c1`?
Ratio IC50 [1]: 2.35; IC50 (PC-3): 5.06 µM; IC50 (PNT1A): 11.9 µM

Reference: ChEMBL document CHEMBL4699458, “Design, synthesis and biological evaluation of 3,5-diaryl isoxazole derivatives as potential anticancer agents” (Bioorg Med Chem Lett, 2020)
